Test results: patent publication US8592172B2, “Bioluminescent assays using cyanobenzothiazole compounds” (Promega Corporation, priority 2010, dated 2013)
Each block holds one compound with its values, some of them ahead of it.

What was measured:
UGT isozymes = UGT isozymes currently reported in the literature; cited from earlier work
GST M1-1 = biological target: T1, GST M1-1 (Homo sapiens, UniProt P09488); assay: Utilization of benzothiazole substrate by GST M1-1; type: biochemical; conditions: 55 minutes at room temperature
T1 sequence (P09488 2-218 limits assumed): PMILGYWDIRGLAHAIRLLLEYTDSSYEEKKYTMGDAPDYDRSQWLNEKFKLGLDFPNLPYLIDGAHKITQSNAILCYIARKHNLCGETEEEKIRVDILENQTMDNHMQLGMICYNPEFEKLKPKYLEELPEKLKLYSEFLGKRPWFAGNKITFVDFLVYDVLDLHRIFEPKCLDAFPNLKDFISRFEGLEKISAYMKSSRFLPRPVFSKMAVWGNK
Experimental: (§1) Compound 934-37 was dissolved in DMSO to produce a solution approximately 1 mg/mL. This solution was diluted 1:100 (v/v) into 50 mM HEPES buffer pH 7.5 to produce a substrate solution (approximately 10 μg/ml). Twenty μL of this solution was placed in 10 wells of a 96 well, white luminometer plate (Promega part Z3291), 20 μL of a 1:3.1 dilution of the substrate (approximately 3.2 μg/ml) was placed into another 10 wells in the luminometer plate.
(§2) D-Cysteine, 4 mg (Sigma Chemical Corp.; C8005-1g, 017K1034) was dissolved into 1 mL of 50 mM HEPES buffer pH 7.5, then 4 μL added to 4 of the wells containing the substrate solution and 4 of the wells with diluted substrate solution to convert compound 934-37 to the corresponding luciferin derivative. The structures of these compounds are shown below.
A sample of GST M1-1 (1.2 mg/mL) and 100 μL of 100 mM glutathione was diluted into 5 mL of 50 mM HEPES pH 7.5, then 25 μL added to: two of the wells with unconverted, concentrated compound 934-37; 2 wells with concentrated and converted compound 934-37; and two of the wells with unconverted, diluted compound 934-37 and 2 of the wells with converted, diluted compound 934-37.
(§3) Glutathione (100 μL of 100 mM glutathione) had been diluted to 5 mL with 50 mM HEPES buffer pH 7.5, then 25 μL added to the remaining wells of converted and unconverted compound 934-37 in concentrated and diluted solution.
(§4) After 55 minutes at room temperature, 4 μL of the D-cysteine solution above was added to all wells that had not received cysteine before, then 50 μL of P450-Glo LDR was added. The plate was then placed into a GloMax luminometer (Promega Corp.), and the bioluminescence measured after 15 minutes of incubation. The values obtained were averaged, and the average value of the bioluminescence produced from the wells with no enzyme were then subtracted from the average of the bioluminescence produced in the wells with enzyme.

[1] = biological target: T2, glutathione S-transferase isoenzyme A1-1 (GST A1-1) (Homo sapiens, UniProt P08263); assay: Utilization of benzothiazole substrate by GST A1-1; type: biochemical; conditions: 55 minutes at room temperature
T2 sequence (P08263 1-222): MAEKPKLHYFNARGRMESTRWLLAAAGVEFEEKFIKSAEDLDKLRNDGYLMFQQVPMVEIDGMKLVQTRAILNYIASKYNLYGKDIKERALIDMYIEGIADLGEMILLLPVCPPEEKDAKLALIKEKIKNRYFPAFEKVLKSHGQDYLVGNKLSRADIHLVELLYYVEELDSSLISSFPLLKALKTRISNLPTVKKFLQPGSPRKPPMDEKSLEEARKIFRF
Experimental: as §1, §2
A sample of glutathione S-transferase isoenzyme A1-1 (GST A1-1) (1.2 mg/mL) and 100 μL of 100 mM glutathione in water was diluted into 5 mL of 50 mM HEPES pH 7.5, then 25 μL added to the plate as follows: 2 wells with unconverted, concentrated compound 934-37; 2 wells with concentrated and converted compound 934-37; 2 wells with unconverted, diluted compound 934-37; and 2 of the wells with converted, diluted compound 934-37.
as §3, §4

UGT 2B7 = UGT 2B7 (Homo sapiens, UniProt P16662); assay: Recombinant UGT panel, substrate utilization; type: biochemical; design: purchased BD Gentest; host or cells: insect cells (microsomes); conditions: 2 hour incubation at 37° C., recombinant Supersomes, background corrected
Chain of UGT 2B7 (P16662 24-529): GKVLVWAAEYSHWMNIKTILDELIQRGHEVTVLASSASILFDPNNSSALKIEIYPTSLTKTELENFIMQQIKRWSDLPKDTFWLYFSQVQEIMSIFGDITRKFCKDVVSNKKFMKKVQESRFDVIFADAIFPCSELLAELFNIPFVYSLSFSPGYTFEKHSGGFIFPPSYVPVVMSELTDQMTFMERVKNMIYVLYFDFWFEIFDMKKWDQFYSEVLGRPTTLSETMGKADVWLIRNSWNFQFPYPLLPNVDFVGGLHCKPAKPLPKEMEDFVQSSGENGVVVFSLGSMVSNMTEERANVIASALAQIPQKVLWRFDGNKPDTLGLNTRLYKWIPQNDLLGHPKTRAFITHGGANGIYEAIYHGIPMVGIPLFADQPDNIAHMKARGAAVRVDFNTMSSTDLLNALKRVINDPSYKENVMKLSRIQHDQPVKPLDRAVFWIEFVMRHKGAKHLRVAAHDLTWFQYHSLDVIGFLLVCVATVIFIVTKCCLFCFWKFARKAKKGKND
Experimental: (§5) During this incubation, the cysteine reacts with the cyanobenzathiozole substrate to yield a D-luciferin derivative. […] Therefore, activity of the UGT enzyme can be measured by analyzing the difference (lower or no output) in relative light units (RLU) of a sample in which glucuronidation occurs compared to a sample that was run under the same conditions with no added UDPGA cofactor.
(§6) In this example, a series of 12 recombinant UGTs expressed in insect microsomes (Supersomes™, BD Gentest™), as well as the control microsomes not expressing the UGT enzyme, were incubated with compound 3138, compound 3478, or compound 3165 as substrates, with or without the UDPGA co-factor.
(§7) After addition of a luciferin detection reagent (LDR) containing D-cysteine, both the substrate and the product were converted to D-luciferins (compound 3478 is already a luciferin derivative before addition of the LDR).
Reactions were assembled in a white, 96-well plate. Each well contained 20 μL of reaction mixture comprised of 100 mM TES, pH 7.5, 16 mM MgCl2, 50 μg/mL alamethicin (Sigma), 60 μM compound 3138 or compound 3478, and 0.4 mg/mL of control or recombinant UGT membranes. The reactions were initiated by addition of 20 μL of water or 8 mM triammonium UDPGA (Sigma) to each well. […] After the incubation was completed, the plate was read on a Veritas™ luminometer (Turner BioSystems, Inc.; Sunnyvale, Calif.). […]

UGT 1A9 = biological target: T3, UGT 1A9 (Homo sapiens, UniProt O60656); assay: Recombinant UGT panel, substrate utilization; type: biochemical; conditions: 2 hour incubation at 37° C., recombinant Supersomes, background corrected
T3 construct: purchased BD Gentest; host or cells: insect cells (microsomes)
T3 sequence (O60656 26-530): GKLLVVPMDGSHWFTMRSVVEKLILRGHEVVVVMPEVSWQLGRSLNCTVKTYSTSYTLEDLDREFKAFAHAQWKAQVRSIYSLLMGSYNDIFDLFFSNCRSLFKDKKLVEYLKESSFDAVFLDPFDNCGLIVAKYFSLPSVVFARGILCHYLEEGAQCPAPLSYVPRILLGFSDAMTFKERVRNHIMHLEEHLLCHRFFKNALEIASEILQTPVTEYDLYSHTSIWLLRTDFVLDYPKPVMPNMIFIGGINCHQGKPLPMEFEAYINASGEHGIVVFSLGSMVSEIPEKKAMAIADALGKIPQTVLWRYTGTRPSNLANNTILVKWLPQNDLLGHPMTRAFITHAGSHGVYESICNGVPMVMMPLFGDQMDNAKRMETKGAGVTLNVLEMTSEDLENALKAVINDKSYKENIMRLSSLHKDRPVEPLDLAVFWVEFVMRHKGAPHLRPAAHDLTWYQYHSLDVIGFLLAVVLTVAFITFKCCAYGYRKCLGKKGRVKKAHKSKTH
Experimental: as §5, §6, §7
(§8) Reactions were assembled in a white, 96-well plate. Each well contained 20 μL of reaction mixture comprised of 100 mM TES, pH 7.5, 16 mM MgCl2, 50 μg/mL alamethicin (Sigma), 60 μM compound 3138 or compound 3478, and 0.4 mg/mL of control or recombinant UGT membranes. The reactions were initiated by addition of 20 μL of water or 8 mM triammonium UDPGA (Sigma) to each well. The plate was mixed, sealed, and incubated in a 37° C. water bath for 2 hours. After the incubation, 40 μL P450-Glo LDR (Promega) with 20 mM D-cysteine-HCl.H2O (Sigma) was added to each well, the plate was mixed and allowed to incubate at room temperature for 20 minutes. After the incubation was completed, the plate was read on a Veritas™ luminometer (Turner BioSystems, Inc.; Sunnyvale, Calif.).
(§9) For each isozyme, the bioluminescence from the replicates containing UDPGA were subtracted from the average bioluminescence of the replicates without UDPGA. The average Δ RLU value obtained and the standard deviation of the replicates were then divided by the average bioluminescence for samples without UDPGA to obtain the % utilization for each isozyme. The % utilization obtained from the control microsomes was then subtracted from each isozyme to give the background corrected utilization data for those isozymes.

UGT 1A6 = biological target: T4, UGT 1A6 (Homo sapiens, UniProt P19224); assay: Recombinant UGT panel, substrate utilization; type: biochemical; conditions: 2 hour incubation at 37° C., recombinant Supersomes
T4 construct: purchased BD Gentest; host or cells: insect cells (microsomes)
T4 sequence (P19224 27-532): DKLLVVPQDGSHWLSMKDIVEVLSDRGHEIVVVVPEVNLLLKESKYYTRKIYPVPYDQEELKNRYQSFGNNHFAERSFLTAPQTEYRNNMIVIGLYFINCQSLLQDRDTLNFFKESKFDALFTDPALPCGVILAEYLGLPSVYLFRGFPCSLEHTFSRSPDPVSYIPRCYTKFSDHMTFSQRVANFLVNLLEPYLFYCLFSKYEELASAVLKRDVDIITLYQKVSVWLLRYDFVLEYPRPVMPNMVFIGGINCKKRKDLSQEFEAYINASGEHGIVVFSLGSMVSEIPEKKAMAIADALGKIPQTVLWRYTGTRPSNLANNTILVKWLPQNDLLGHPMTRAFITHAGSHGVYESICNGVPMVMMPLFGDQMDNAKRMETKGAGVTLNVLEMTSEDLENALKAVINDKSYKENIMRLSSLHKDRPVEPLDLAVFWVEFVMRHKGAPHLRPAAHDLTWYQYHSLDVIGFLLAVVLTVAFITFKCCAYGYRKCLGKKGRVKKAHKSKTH
Experimental: as §5, §6, §7, §8, §9

UGT 1A1 = biological target: T5, UGT 1A1 (Homo sapiens, UniProt P22309); assay: Recombinant UGT panel, substrate utilization; type: biochemical; conditions: 2 hour incubation at 37° C., recombinant Supersomes, background corrected
T5 construct: purchased BD Gentest; host or cells: insect cells (microsomes)
T5 sequence (P22309 26-533): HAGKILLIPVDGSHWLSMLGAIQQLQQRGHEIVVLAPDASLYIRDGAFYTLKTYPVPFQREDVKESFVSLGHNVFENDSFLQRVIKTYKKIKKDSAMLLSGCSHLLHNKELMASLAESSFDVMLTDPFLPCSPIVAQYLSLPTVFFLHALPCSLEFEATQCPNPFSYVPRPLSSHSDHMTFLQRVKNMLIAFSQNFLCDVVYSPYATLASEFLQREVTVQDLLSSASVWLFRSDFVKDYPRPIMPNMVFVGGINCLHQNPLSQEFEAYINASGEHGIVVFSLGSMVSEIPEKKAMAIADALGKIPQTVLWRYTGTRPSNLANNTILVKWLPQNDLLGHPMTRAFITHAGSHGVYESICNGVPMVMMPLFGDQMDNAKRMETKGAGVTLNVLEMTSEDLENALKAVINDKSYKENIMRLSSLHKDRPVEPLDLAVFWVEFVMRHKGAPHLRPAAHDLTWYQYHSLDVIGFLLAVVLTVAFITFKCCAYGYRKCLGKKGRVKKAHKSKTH
Experimental: as §5, §6, §7, §8, §9

UGT 2B4 = biological target: T6, UGT 2B4 (Homo sapiens, UniProt P06133); assay: Recombinant UGT panel, substrate utilization; type: biochemical; conditions: 2 hour incubation at 37° C., recombinant Supersomes
T6 construct: purchased BD Gentest; host or cells: insect cells (microsomes)
T6 sequence (P06133 24-528): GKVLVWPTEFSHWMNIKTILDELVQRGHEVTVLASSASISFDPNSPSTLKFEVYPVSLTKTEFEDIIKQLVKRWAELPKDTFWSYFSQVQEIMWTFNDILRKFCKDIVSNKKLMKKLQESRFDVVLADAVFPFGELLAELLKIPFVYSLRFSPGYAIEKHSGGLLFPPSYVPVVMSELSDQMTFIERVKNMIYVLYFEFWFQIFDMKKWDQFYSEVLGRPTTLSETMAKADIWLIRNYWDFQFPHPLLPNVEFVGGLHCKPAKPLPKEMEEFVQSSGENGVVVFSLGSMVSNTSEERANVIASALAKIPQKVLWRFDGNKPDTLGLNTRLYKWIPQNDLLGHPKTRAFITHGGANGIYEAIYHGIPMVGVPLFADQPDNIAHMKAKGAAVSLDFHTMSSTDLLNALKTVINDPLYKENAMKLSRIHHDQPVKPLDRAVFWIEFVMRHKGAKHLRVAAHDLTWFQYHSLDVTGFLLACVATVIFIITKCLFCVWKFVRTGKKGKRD
Experimental: as §5, §6, §7, §8, §9

UGT 1A4 = biological target: T7, UGT 1A4 (Homo sapiens, UniProt P22310); assay: Recombinant UGT panel, substrate utilization; type: biochemical; conditions: 2 hour incubation at 37° C., recombinant Supersomes
T7 construct: purchased BD Gentest; host or cells: insect cells (microsomes)
T7 sequence (P22310 29-534): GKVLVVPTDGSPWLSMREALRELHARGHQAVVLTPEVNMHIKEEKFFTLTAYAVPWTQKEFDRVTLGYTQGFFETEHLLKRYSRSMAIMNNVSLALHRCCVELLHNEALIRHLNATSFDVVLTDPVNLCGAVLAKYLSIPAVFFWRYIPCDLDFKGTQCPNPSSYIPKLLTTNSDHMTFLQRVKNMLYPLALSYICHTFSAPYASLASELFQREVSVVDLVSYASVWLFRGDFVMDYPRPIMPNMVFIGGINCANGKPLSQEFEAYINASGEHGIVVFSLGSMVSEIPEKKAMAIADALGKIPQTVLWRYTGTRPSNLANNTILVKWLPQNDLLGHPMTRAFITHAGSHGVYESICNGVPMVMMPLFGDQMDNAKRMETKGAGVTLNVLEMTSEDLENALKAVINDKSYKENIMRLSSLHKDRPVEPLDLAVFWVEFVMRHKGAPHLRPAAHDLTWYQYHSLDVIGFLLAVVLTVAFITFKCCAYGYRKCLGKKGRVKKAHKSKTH
Experimental: as §5, §6, §7, §8, §9

UGT 1A10 = biological target: T8, UGT 1A10 (Homo sapiens, UniProt Q9HAW8); assay: Recombinant UGT panel, substrate utilization; type: biochemical; conditions: 2 hour incubation at 37° C., recombinant Supersomes, background corrected
T8 construct: purchased BD Gentest; host or cells: insect cells (microsomes)
T8 sequence (Q9HAW8 26-530): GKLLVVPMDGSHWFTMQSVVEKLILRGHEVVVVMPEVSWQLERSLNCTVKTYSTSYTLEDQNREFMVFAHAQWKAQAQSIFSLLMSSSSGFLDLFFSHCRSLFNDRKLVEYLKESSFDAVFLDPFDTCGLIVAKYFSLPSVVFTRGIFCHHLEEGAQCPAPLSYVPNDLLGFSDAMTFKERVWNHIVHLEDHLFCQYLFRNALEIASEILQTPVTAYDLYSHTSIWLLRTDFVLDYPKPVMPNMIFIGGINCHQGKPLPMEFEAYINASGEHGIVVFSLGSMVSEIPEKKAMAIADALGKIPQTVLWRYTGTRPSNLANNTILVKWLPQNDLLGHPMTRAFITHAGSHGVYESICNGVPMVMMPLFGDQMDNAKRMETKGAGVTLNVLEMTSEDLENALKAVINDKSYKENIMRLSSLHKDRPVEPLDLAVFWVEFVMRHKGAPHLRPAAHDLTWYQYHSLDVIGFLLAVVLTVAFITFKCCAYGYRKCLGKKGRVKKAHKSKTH
Experimental: as §5, §6, §7, §8, §9

UGT 1A8 = biological target: T9, UGT 1A8 (Homo sapiens, UniProt Q9HAW9); assay: Recombinant UGT panel, substrate utilization; type: biochemical; conditions: 2 hour incubation at 37° C., recombinant Supersomes, background corrected
T9 construct: purchased BD Gentest; host or cells: insect cells (microsomes)
T9 sequence (Q9HAW9 26-530): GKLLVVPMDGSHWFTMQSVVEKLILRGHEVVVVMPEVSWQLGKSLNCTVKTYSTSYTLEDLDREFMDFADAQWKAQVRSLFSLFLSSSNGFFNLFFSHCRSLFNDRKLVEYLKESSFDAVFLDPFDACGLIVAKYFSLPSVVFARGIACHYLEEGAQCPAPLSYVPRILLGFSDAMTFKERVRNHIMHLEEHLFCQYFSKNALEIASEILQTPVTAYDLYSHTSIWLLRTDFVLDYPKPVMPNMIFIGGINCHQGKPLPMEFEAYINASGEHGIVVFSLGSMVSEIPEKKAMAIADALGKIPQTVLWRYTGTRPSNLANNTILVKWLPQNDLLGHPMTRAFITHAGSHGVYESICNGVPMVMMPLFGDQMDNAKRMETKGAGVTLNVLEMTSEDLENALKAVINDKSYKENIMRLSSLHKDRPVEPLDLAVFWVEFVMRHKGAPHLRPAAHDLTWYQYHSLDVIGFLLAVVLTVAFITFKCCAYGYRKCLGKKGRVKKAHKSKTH
Experimental: as §5, §6, §7, §8, §9

[2] = concentrated substrate (approximately 10 μg/ml)
[3] = diluted substrate (approximately 3.2 μg/ml)

Compound: O=c1cc(C(F)(F)F)c2ccc(O)cc2o1 [7-hydroxy-4-trifluoromethyl coumarin]
- Isozymes Modulated (UGT isozymes): Substrate for 1A1, 1A3, 1A6, 1A9, 2B7

- bioluminescence with GST M1-1 minus no enzyme (GST M1-1; [2]): 41,212 RLU
- bioluminescence with GST M1-1 minus no enzyme (GST M1-1; [3]): 30,428 RLU
- bioluminescence with GST A1-1 minus no enzyme [1, 2]: 164,400 RLU
- bioluminescence with GST A1-1 minus no enzyme [1, 3]: 195,021 RLU
Compound: Cc1cc(S(=O)(=O)Oc2ccc3nc(C#N)sc3c2)ccc1[N+](=O)[O-] [Compound 934-37]

Compound: Cc1cc(O)cc2sc(C3=NC(C(=O)O)CS3)nc12 (stereo not shown) [Compound 3478]
- % utilization of substrate by UGT 2B7 (UGT 2B7): ≤ 15%
- % utilization of substrate by UGT 1A9 (UGT 1A9): ≤ 15%
- utilization of substrate by UGT 1A6 (UGT 1A6): able to utilize compound 3478 to any appreciable extent
- % utilization of substrate by UGT 1A1 (UGT 1A1): ≤ 15%
- utilization of substrate by UGT 2B4 (UGT 2B4): did not utilize either compound 3138 or 3478 to an appreciable extent
- utilization of substrate by UGT 1A4 (UGT 1A4): did not utilize either compound 3138 or 3478 to an appreciable extent
- % utilization of substrate by UGT 1A10 (UGT 1A10): ≤ 15%
- % utilization of substrate by UGT 1A8 (UGT 1A8): ≤ 15%
